{"source": "patent US12171734B2", "about": "“Pathogenic bacteria” (Sporegen Limited, priority 2018, dated 2024)", "key": {"[1]": {"settings": "lipopeptides of B. subtilis; cited from earlier work"}, "M. tuberculosis H37Rv": {"tested_on": "M. tuberculosis H37Rv", "assay": "MIC by resazurin microtitre assay (REMA)", "assay_type": "cell-based", "settings": "Mycobacterium tuberculosis, 240 h, read-out: MIC, M. tuberculosis H37Rv"}, "CD630 [2]": {"tested_on": "CD630", "assay": "Bacteriolytic vs bacteriocidal vs bacteriostatic activity on log-phase CD630 cultures (OD600, CFU)", "assay_type": "cell-based, C. difficile", "settings": "activity normalised; added at log phase", "method": "Fractions 1-3 were analysed for their ability to inhibit growth of cultures of CD630 by addition of test material at the log phase of cell growth (OD600˜0.3). Test materials were diluted in dH2O to normalise so that each sample to be tested carried the same activity/volume. […] of diluted test material was added to 1 ml of CD630 culture and 0.2 ml removed hourly for OD600 readings.\nOptical density (OD600) was measured before and after addition of test material. A decline in OD600 indicates bacteriolytic activity while stalling of the increase in OD600 indicates either bacteriostatic or bacteriocidal growth. On the other hand a decline in CFU/ml indicates both bacteriolytic and/or bacteriocidal activity. (FIGS. 22A and 22B and Table 13)."}, "CD630 [3]": {"tested_on": "CD630", "assay": "Microdilution assay of inhibitory activity against C. difficile strain 630", "settings": "for activity to CD630 of commercial lipopeptides: commercial (SIGMA) samples, alone or combined"}, "[4]": {"assay": "Solubility in water / appearance of solution", "assay_type": "physicochemical", "text": "C15 iturin A is an example of a lipopeptide able to form micelles and is water-soluble. The inventors suspect that C15 iturin A may enable other lipopeptides to be solubilised in water and potentially form mixed micelles enabling them to target the bacterial cell. To test this, the inventors mixed water solubilised C15 iturin A with a commercial surfactin (Sigma S3523; derived from B. subtilis and a mixture of C13-C15 surfactins). […] The presence of C15 iturin A enables the solubilisation of […] in water and probably all or many of the other lipopeptides present in or on the cell wall of SG277 and other Bacillus species. The important requirements for activity are the concentration of lipopeptides that are produced (since micelles can only be formed at levels above a critical threshold). The micelles formed are most likely to be mixed micelles (i.e., carrying different lipopeptide species but all carrying C15 iturin A)(at least for B. amyloliquefaciens)."}}, "note": "“Also recorded” adds a separate entry of the source. Numbered stars: 1 amine (or outer) side, 2 acyl side, 3 side chain; on linkers, the order of the positions; unused ones are H or OH. Bridge positions count the residues as written; N and C are the ends. Square brackets hold non-standard residues; d marks the D form. Peptide text beside a SMILES is read from it. X1 = CC(C)CCCCCCCCC[C@H](CC(=O)[*:1])O[*:2]; X2 = CCC(C)CCCCCCCCCCC(CC(=O)[*:2])N[*:1]", "data": [{"molecule": "CCC(C)CCCCCCCCCCC1CC(=O)N[C@@H](CC(N)=O)C(=O)N[C@@H](CCC(N)=O)C(=O)N2CCC[C@H]2C(=O)N[C@H](Cc2ccc(O)cc2)C(=O)N[C@H](CC(N)=O)C(=O)N[C@H](CC(N)=O)C(=O)N[C@H](CO)C(=O)N[C@@H](CC(N)=O)C(=O)N1", "note": "(some centres unmarked) [mycosubtilin, Mycosubtilin] (cyclo(NQP[dY][dN][dN][dS]N[X2]))", "values": [{"measurement": "micelle size", "setting": "[1]", "value": "8-18 nm"}]}, {"molecule": "CO[C@H]1/C=C/O[C@@]2(C)Oc3c(C)c(O)c4c(O)c(c(/C=N/N5CCN(C)CC5)c(O)c4c3C2=O)NC(=O)/C(C)=C\\C=C\\[C@H](C)[C@H](O)[C@@H](C)[C@@H](O)[C@@H](C)[C@H](OC(C)=O)[C@@H]1C", "note": "[Rifampicin]", "values": [{"measurement": "MIC", "setting": "M. tuberculosis H37Rv", "value": 0.5, "unit": "µg/mL"}]}, {"molecule": "CC(N)C(=O)NC(C[C@@H]1C=C(Cl)C(=O)CC1)C(=O)O", "note": "(some centres unmarked) [Chlorotetaine]", "values": [{"measurement": "Bacteriocidal (cessation of cell growth, CD630 cfu/ml)", "setting": "CD630 [2]", "value": "bacteriocidal"}]}, {"molecule": "fengycin", "values": [{"measurement": "activity to CD630 of commercial lipopeptides", "setting": "CD630 [3]", "value": "none showed activity"}]}, {"molecule": "Iturin A", "values": [{"measurement": "activity to CD630 of commercial lipopeptides", "setting": "CD630 [3]", "value": "unable to demonstrate any activity"}, {"measurement": "activity to CD630 of commercial lipopeptides", "setting": "CD630 [3]; listed as iturin", "value": "none showed activity"}]}, {"molecule": "NNC(=O)c1ccncc1", "note": "[Isoniazid]", "values": [{"measurement": "MIC", "setting": "M. tuberculosis H37Rv", "value": 0.25, "unit": "µg/mL"}]}, {"molecule": "CC(C)CCCCCCCCC[C@@H]1CC(=O)N[C@@H](CCC(=O)O)C(=O)N[C@@H](CC(C)C)C(=O)N[C@H](CC(C)C)C(=O)N[C@@H](C(C)C)C(=O)N[C@@H](CC(=O)O)C(=O)N[C@H](CC(C)C)C(=O)N[C@@H](CC(C)C)C(=O)O1", "note": "[surfactin, Surfactin] (EL[dL]VD[dL]L; linker N-C via X1)", "values": [{"measurement": "micelle size", "setting": "[1]", "value": "5-105 nm"}, {"measurement": "activity against C. difficile (in words)", "setting": "CD630 [3]", "value": "no activity"}, {"measurement": "activity to CD630 of commercial lipopeptides", "setting": "CD630 [3]", "value": "unable to demonstrate any activity; also recorded: none showed activity"}, {"measurement": "solubility in water", "setting": "[4]", "value": "not soluble in water"}]}]}
